From US9737525B2, “Small molecule activators of NRF2 pathway” (The General Hospital Corporation, priority 2013, dated 2017) come the findings set out here.

Common to all, as to assay type: cell-based, mouse
Series [1] has as its system primary cortical neurons expressing 140Q full-length mutant huntingtin. Nature of the series: Neuronal viability assay (MTT), wild type and HD primary cortical neurons. The note with it: for Cytotoxicity in primary neurons: 0.5 μM and higher. How it is done:
Embryonic tissue from wild type and 140Q mouse brains (E15-E17 days into pregnancy) was used to isolate and plate cortical neurons as described (Valencia et al., 2013). Neurons were plated at 8×10^5 cell/ml in a 24-well plate supplemented with 25 μM of L-glutamate and 10 μM of 2-β-mercapto-ethanol (Gibco). Plates were previously coated with poly-L-lysine (30-70 kDa, SIGMA) in borate buffer at pH 8.0 and coated again using DMEM/F12+FBS 10% for 2 hours prior to plating. After 3 days in culture, neurons were treated with 10 μM of β-D-cytosine arabinofurinoside for 24 hours to prevent the proliferation of non-neuronal cells.
Neurons were supplemented with MIND4 at different concentrations 0, 0.1, 0.25 and 0.5 μM at days in vitro 4, 6 and 8 (FIG. 3A). […] To maintain drug concentrations, half of the culture media was replenished with fresh media at each time point and MIND4 treatment doses were adjusted accordingly. Cell viability was measured at DIV 10 as previously described based on the ability of viable neurons to transformed MTT (3-(4,5-Dimethylthiazol-2-yl)-2,5-diphenyltetrazolium bromide) into formazan blue crystals (Valencia et al., 2013). Neurons were incubated with 0.5 mg/ml of MTT for 15 minutes, media was then discarded and formazan blue crystals were dissolved in DMSO 100% and read at 540 nm in a Vector plate reader. Results are expressed as Mean±Standard deviation absorbance units at 540 nm (AU). P values were obtained using a Student's t-test from an N=6 wells per condition for treated wild type and HD neurons.
Cell survival was measured as MTT transformation at 10 days in vitro (DIV). Neurons were treated three times with the compounds at 4, 6 and 8 DIV at the indicated concentrations. Two independent experiments were performed with a total of 13 embryos per genotype, 6 WT and 7 HD respectively; 6 wells were used for each experimental condition (compound dose).

For series [2], the system named is 5×-ARE promoter-luciferase reporter. The series is described as follows: 5×-ARE-luciferase reporter assay in primary corticostriatal co-cultures. The note with it: 5 μM, 4 hr or 16 hr. How it is done: Primary corticostriatal neuronal co-cultures were prepared from E18 mouse brains as previously described [Kaltenbach, 2010]. Mice were maintained in accordance with Duke University Medical Center Institutional Animal Care and Use Committee guidelines. For 5×-ARE-luciferase reporter assays, neurons were transfected following their isolation (Nucleofector, Lonza) with 2.5 μg Cignal Antioxidant Response Reporter dual luciferase plasmids (Qiagen/SABiosciences) and plated onto pre-established glial beds in 96 well plates. After 4 days in culture at 37° C. under 5% CO2, co-cultures were treated with the indicated compounds for 4 hr or 16 hr then harvested and read for luminescence from firefly and Renilla luciferases according to the Dual Glo luciferase protocol (Promega) using a SpectraMaxL luminometer (Molecular Devices). Each sample was measured in technical triplicate. For quantitative RT-PCR (qPCR) of ARE target genes, corticostriatal co-cultures were prepared as described above and, after 4 days in culture, treated for 6 hr with the indicated compounds followed by RNA harvesting according to the Absolutely RNA miniprep protocol (Agilent Technologies). Purified RNA was converted to cDNA using random hexamers and SuperScript First-Strand RT-PCR Synthesis (Invitrogen). […] Ct values were determined using primer sets against ARE genes Hmox1, Gclc and Nqo1]. […]
(Reporter assays use an easily measured gene product as a stand-in for the process of interest.)

For another series, the system named is BV2 microglia cells. Nature of the series: Transcriptional expression profiling in LPS-induced microglia BV2 cells (qRT-PCR). How it is done: To further validate the NRF2 activating properties of MIND4, effects of the compound on repression of inflammatory responses were tested in LPS-induced BV2 microglia cells, a model in which the influence of NRF2 signaling on inflammation has been well established (Koh et al., 2011). A BV2 mouse microglia cell line was maintained in DMEM media supplemented with 10% FBS (Sigma) and antibiotic-antimycotic mix. Cells were seeded into 12 well plates at the density of 3×10^5 cells/well. Cells were treated with the indicated concentrations of MIND4, MIND4-17, and MIND4A compounds for 24 hr. Cells were then stimulated with 10 ng/ml LPS (E. coli) for 2 hr. Total RNA was isolated using ZR Miniprep kit (Zymo Research). 1 μg of total RNA was used to prepare cDNA. Gene expression was analyzed using VeriQuest SYBR green assay in Roche480 thermocycler. The sequences of gene-specific primers for qPCR were as follows: […]
Immortalized bone marrow derived mouse macrophages (iBMMs) and BV2 mouse microglia cell line were used in the present study. Both cell types were maintained in DMEM media supplemented with 10% FBS and antibiotic-antimycotic mix. Cells were seeded into 12 well plates at the density of 3×10^5 cells/well. Cells were treated with the indicated concentrations of MIND4-17 compounds for 24 hr. Cells were then stimulated with 10 ng/ml LPS (E. coli, Sigma) for 2 hr. Total RNA was isolated using ZR Miniprep kit (Zymo Research). […] of total RNA was used to prepare cDNA. Gene expression was analyzed using VeriQuest SYBR green assay (Affymetrix) in Roche480 thermocycler. Primer sequences are as described above (see Example 9).
On the technique in general: Real-time PCR tracks product formation cycle by cycle.

Setting [3] is: 0.25 μM, treated at 4, 6 and 8 DIV, MTT at 10 DIV.
Setting [4] is: BV2 cells, dose-dependent, 24 hr.

`O=[N+]([O-])c1ccc(Sc2nnc(COc3ccccc3)n2-c2ccccc2)c2ncccc12` [MIND4, 5-nitro-8-{[5-(phenoxymethyl)-4-phenyl-4H-1,2,4-triazol-3-yl]thio}quinoline]: the “Survival of HD neurons” value is given as “partially improved survival” in series [1] (0.1 μM); “improved survival of HD neurons at both doses” in series [1] (0.1 μM and 0.25 μM, treated at DIV 4, 6, 8, MTT at DIV 10); “enhanced survival of HD neurons” in series [1] (setting [3]). Besides, in series [1], the “Cytotoxicity in primary neurons” value was “cytotoxic”. In addition, the “Effect on control cortical neurons from wild type mice” value in series [1] (7 days of treatment) is given as “No effects”. In series [2], the “Transcriptional rate of 5×-ARE promoter-luciferase reporter” value is reported as “able to induce increases in the transcriptional rate”. Besides, the “TNFα and IL-6 gene expression” value in the series with BV2 microglia cells (3 μM 24 hr pre-treatment, LPS-activated BV2 cells) is listed as “correspondingly reduced”. The “IL-1β and MCP-1 transcription” value in the series on BV2 microglia cells (3 μM 24 hr pre-treatment, basal and LPS-induced BV2 cells) was “repression of both basal and LPS-induced transcription”.
For `O=[N+]([O-])c1ccc(Sc2nnc(COc3ccccc3)n2-c2ccccc2)nc1` [MIND4-17], in series [1] (setting [3]), the “Survival of HD neurons” value was “enhanced survival of HD neurons”. The “Cytotoxicity in primary neurons” value in series [1] is given as “cytotoxic”. In series [2], the “Transcriptional rate of 5×-ARE promoter-luciferase reporter” value was “able to induce increases in the transcriptional rate”. Besides, in the series on BV2 microglia cells (setting [4]), the “Expression of inflammatory factors TNFα, IL-6, IL-1β and MCP-1” value is “repressed transcriptional expression of inflammatory factors”; the “Transcription of GCLM and NQO1” value is “increased transcription of the canonical NRF2 target genes GCLM and NQO1”.
